# Results published in ChEMBL document CHEMBL1136219, “Synthesis and SAR evaluation of oxadiazolopyrazines as selective Haemophilus influenzae antibacterial agents” (2003).
# Tests used:
# Type in all cases: functional
# Streptococcus pneumoniae = assay: Minimum inhibitory concentration against Streptococcus pneumoniae
# Escherichia coli = assay: Minimum inhibitory concentration against Escherichia coli
# Candida albicans = assay: Minimum inhibitory concentration against Candida albicans
# Staphylococcus aureus = assay: Minimum inhibitory concentration against Staphylococcus aureus
# Haemophilus influenzae = assay: Minimum inhibitory concentration against Haemophilus influenzae
# JIYOYE = assay: Cytotoxicity against human Jijoye B cell
Structure (SMILES),MIC (Streptococcus pneumoniae) [µg/mL],MIC (Escherichia coli) [µg/mL],MIC (Candida albicans) [µg/mL],MIC (Staphylococcus aureus) [µg/mL],MIC (Haemophilus influenzae) [µg/mL],Cytotoxicity (JIYOYE) [µg/mL]
Oc1nc2nonc2nc1-c1ccc(F)cc1,64,> 128,> 128,64,1,>100
COc1ccc(-c2nc3nonc3nc2O)cc1,128,> 128,> 128,64,4,>100
Oc1nc2nonc2nc1-c1cccc(Cl)c1,64,> 128,> 128,128,1,>100
CN(C)c1ccc(-c2nc3nonc3nc2O)cc1,128,> 128,> 128,> 128,4,>100
Oc1nc2nonc2nc1-c1ccc(Br)cc1,64,> 128,> 128,16,1,>100
Oc1nc2nonc2nc1-c1ccc(C(F)(F)F)cc1,64,> 128,> 128,32,4,>100
O=[N+]([O-])c1cccc(-c2nc3nonc3nc2O)c1,64,> 128,> 128,32,1,>100
Oc1nc2nonc2nc1-c1ccc(N2CCOCC2)cc1,64,> 128,> 128,> 128,32,>100
Oc1nc2nonc2nc1-c1ccccc1F,64,> 128,> 128,> 128,8,>100
Oc1nc2nonc2nc1-c1cccc(Br)c1,64,> 128,> 128,32,0.5,>100
Cn1cccc1-c1nc2nonc2nc1O,64,> 128,> 128,> 128,8,>100
Oc1nc2nonc2nc1-c1ccccc1Br,128,> 128,> 128,> 128,128,>100
O=[N+]([O-])c1ccc(-c2nc3nonc3nc2O)cc1,128,> 128,> 128,> 128,8,>100
Oc1nc2nonc2nc1-c1ccc2c(c1)OCO2,128,> 128,> 128,64,2,>100
Oc1nc2nonc2nc1-c1c[nH]c2ccccc12,64,> 128,> 128,> 128,8,>100
Oc1nc2nonc2nc1-c1ccccc1,128,128,> 128,128,1,>100
Oc1nc2nonc2nc1-c1ccc(Oc2ccccc2)cc1,64,> 128,> 128,4,8,60
Oc1nc2nonc2nc1-c1cccs1,64,128,> 128,32,0.5,>100
Oc1nc2nonc2nc1-c1ccc(N2CCCCC2)cc1,128,> 128,> 128,64,64,>100
COc1cccc(-c2nc3nonc3nc2O)c1,64,> 128,> 128,128,8,>100
Oc1nc2nonc2nc1-c1ccc[nH]1,128,> 128,128,128,4,>100
Oc1nc2nonc2nc1-c1ccc(Cl)cc1,128,> 128,> 128,16,1,>100
Oc1nc2nonc2nc1-c1ccsc1,128,128,> 128,64,1,100
Oc1nc2nonc2nc1-c1ccc(C2CCCCC2)cc1,64,> 128,> 128,4,16,60
Oc1nc2nonc2nc1-c1ccccc1Cl,128,> 128,> 128,> 128,128,>100
COc1cc(-c2nc3nonc3nc2O)cc(OC)c1OC,128,> 128,> 128,> 128,128,>100
Oc1nc2nonc2nc1-c1cccc(F)c1,64,128,> 128,64,1,>100
Oc1nc2nonc2nc1-c1cccc(C(F)(F)F)c1,128,> 128,> 128,32,2,>100
